Measurements from US11427596B2, “Metal-free solvent-free synthesis of fused-pyrido heterocycles and biomedical applications” (Indian Institute of Technology Indore, priority 2019, dated 2022).

Tested on: Mycobacterium bovis
Format: cell-based
Conditions: virulent/opportunistic multidrug resistant Mycobacterium bovis (BCG), incubation 48 hrs, n=3

SMILES: Cc1ccc(-c2nc(COCc3cn(CCN4C(=O)C(=O)c5ccccc54)nn3)cc3oc(C)cc23)o1 [compound 26, 1-(2-(4-(((2-Methyl-4-(5-methylfuran-2-yl)furo[3,2-c]pyridin-6-yl)methoxy)methyl)-1H-1,2,3-triazol-1-yl)ethyl)indoline-2,3-dione]
- concentration range in which active (antituberculosis activity): 70 to 100 µM
